Each structure is given as a SMILES string. In brackets after ≈: the same amount, converted by molar mass.

These results are taken from patent publication US7038021B2, “Anti-dioxins monoclonal antibody suitable for assaying dioxins in environment and hybridoma producing the same” (priority 2004, dated 2006).

The subject of data set [1] is monoclonal antibody Dx02-I-0. Briefly: Cross-reactivity of monoclonal antibody Dx02-I-0 by indirect competitive assay (ELISA, II-1 immobilized). As to conditions: for IC50: indirect competitive assay, immobilized II-1, 20% DMSO and 0.01% Triton-X100, room temperature 10 to 30 minutes; for Cross-reactivity: obtained from IC50 values, 1,2,3,7,8-PeCDF = 100; for reactivity (cross-reactivity) of the antibody: assuming the reactivity with 1,2,3,7,8-PeCDF is 100%. The data set is classed as binding, mouse. On the procedure:
According to the method used for determination of the antibody titer, antigen II-1 or II-2 was immobilized onto wells of a microtiter plate and the wells were washed. A solution (300 μl) of Block Ace 4-fold diluted with deionized water was then added to the wells, and the wells were blocked by allowing it to stand at room temperature for 2 hours. The wells were washed three times with the washing solution (300 μl). The supernatant (25 μl) of the culture containing a primary antibody as well as a solution (25 μl) of various concentrations of a phenoxathiin derivative (I-1 or I-2), which is a compound for screening having a structure similar to that of dioxins and having a reduced toxicity, in 20% DMSO and 0.01% Triton-X100, or a solution (25 μl) of various concentrations of dioxins in 20% DMSO and 0.01% Triton-X100, or a solution (25 μl) containing neither the phenoxathiin derivatives nor the dioxins in 20% DMSO and 0.01% Triton-X100 which serves as a control were then added to the wells and mixed in the wells. The wells were allowed to stand at room temperature for 10 to 30 minutes to effect an antigen-antibody reaction.
The wells were washed three times with the washing solution (300 μl). Then, in order to detect the primary antibody which was bound to II-1 or II-2 immobilized onto the plate, a solution (50 μl) of a horseradish peroxidase-labeled anti-mouse IgG (recognizing γ-chain) prepared by 3000-fold diluting with a solution of Block Ace 10-fold diluted with deionized water was added to the wells as a solution of a secondary antibody, and reacted at room temperature for one our. After the wells were again washed three times with the washing solution (300 μl), a TMB solution was added to the wells, and a coloration reaction was effected at room temperature. After 5 to 15 minutes, the reaction was terminated by adding 1 M phosphoric acid (50 μl), and the absorbance at 450 nm was immediately measured using a microplate reader. The ratio (B/B0) of an absorbance value (B) in the well to which one of phenoxathiin derivatives or dioxins was added, to an absorbance value (control OD; B0) in the well to which only a solution of 20% DMSO and 0.01% Triton-X100 was added but neither the phenoxathiin derivatives nor the dioxins were added, was calculated to evaluate the reactivity of the primary antibody. A hybridoma in the well in which a continuously high production of an antibody having a high binding activity against the antigens was recognized was selected, expanded, and cloned by a limiting dilution method.
Using monoclonal antibody Dx02-I-0, the cross-reactivity with 17 kinds of dioxins each having a toxicity value and 12 kinds of coplanar PCBs was evaluated by an indirect competitive assay. II-1 (50 μl) was added to wells in a microtiter plate, and the wells were allowed to stand at room temperature for one hour and then washed. After the wells were blocked, various concentrations of one of dioxins (25 μl) dissolved in 20% DMSO and 0.01% Triton-X100 or a solution (25 μl) of 20% DMSO and 0.01% Triton-X100 not containing any dioxin which serves as a control as well as a solution (25 μl) of the antibody diluted with 0.01 to 0.1% BSA were added to the wells in the plate, and reacted at room temperature for 10 to 30 minutes.
Then, a coloration reaction was effected using a secondary antibody against the antibody bound to the solid phase, i.e. a peroxidase-labeled anti-mouse IgG antibody (recognizing γ-chain) as well as TMB. After the enzyme reaction was terminated, the absorbance at 450 nm was immediately measured. The B/B0 values were plotted for various dioxins, IC50 values were calculated from the resulting figures, and the cross-reactivity of the antibody was obtained from these values (Table 3).

The conditions of data set [2]: WHO-TEF, toxicity of 2,3,7,8-TCDD taken as 1; cited from earlier work.
Data set [3] relates to antibody of non-patent reference 2. As to conditions: assuming the reactivity with 1,2,3,7,8-PeCDF is 100%; cited from earlier work.

On to `Clc1cc2c(c(Cl)c1Cl)Oc1c(Cl)c(Cl)c(Cl)c(Cl)c1O2` [1,2,3,4,6,7,8-HpCDD], for which, in data set [1], the IC50 is over 0.1 µg/mL and the Cross-reactivity is reported as under 1. Besides, in data set [2], the TEF is on record as 0.01.
In data set [1], `Clc1cc2c(oc3c(Cl)c(Cl)c(Cl)c(Cl)c32)c(Cl)c1Cl` [1,2,3,4,6,7,8-HpCDF] had a half-maximal inhibitory concentration (IC50) of over 0.1 µg/mL and a Cross-reactivity of under 1. Moreover, the TEF in data set [2] is reported as 0.01.
Take `Clc1cc2oc3c(Cl)c(Cl)c(Cl)c(Cl)c3c2c(Cl)c1Cl` [1,2,3,4,7,8,9-HpCDF]: in data set [1], the “reactivity (cross-reactivity) of the antibody” value (“reactivity (cross-reactivity)” for short) came to 34%, the IC50 came out at 0.00267 µg/mL (≈ 0.00652 µM) and the Cross-reactivity came out at 34. In addition, the TEF in data set [2] was 0.01.
On to `Clc1cc2c(cc1Cl)Oc1c(Cl)c(Cl)c(Cl)c(Cl)c1O2` [1,2,3,4,7,8-HxCDD], for which, in data set [1], the IC50 is over 0.1 µg/mL and the Cross-reactivity is under 1. The TEF in data set [2] is on record as 0.1.
In data set [1], `Clc1cc2oc3c(Cl)c(Cl)c(Cl)c(Cl)c3c2cc1Cl` [1,2,3,4,7,8-HxCDF] came in with an IC50 of over 0.1 µg/mL and a Cross-reactivity of under 1. The Cross-reactivity in data set [3] was 45.9%. Besides, the TEF in data set [2] was 0.1.
Regarding `Clc1cc2c(c(Cl)c1Cl)Oc1cc(Cl)c(Cl)c(Cl)c1O2` [1,2,3,6,7,8-HxCDD], in data set [1], the “reactivity (cross-reactivity)” value is listed as 93%, the IC50 was determined as 0.000984 µg/mL (≈ 0.00252 µM) and the Cross-reactivity is on record as 93. The TEF in data set [2] is on record as 0.1.
In data set [1], `Clc1cc2c(oc3cc(Cl)c(Cl)c(Cl)c32)c(Cl)c1Cl` [1,2,3,6,7,8-HxCDF] gave an IC50 of over 0.1 µg/mL and a Cross-reactivity of under 1. Besides, the Cross-reactivity in data set [3] was 36.6%. Besides, in data set [2], the TEF was 0.1.
Consider `Clc1cc2c(c(Cl)c1Cl)Oc1c(cc(Cl)c(Cl)c1Cl)O2` [1,2,3,7,8,9-HxCDD], for which, in data set [1], the “reactivity (cross-reactivity)” value stood at 86%, the 50% inhibitory concentration (IC50) was determined as 0.00106 µg/mL (≈ 0.00271 µM) and the Cross-reactivity is 86. Further, the Cross-reactivity in data set [3] was 39.8%. Further, the TEF in data set [2] is 0.1.
In data set [1], `Clc1cc2oc3cc(Cl)c(Cl)c(Cl)c3c2c(Cl)c1Cl` [1,2,3,7,8,9-HxCDF] yielded a half-maximal inhibitory concentration (IC50) of 0.0355 µg/mL (≈ 0.0947 µM) and a Cross-reactivity of 3. For the same molecule, the Cross-reactivity in data set [3] is reported as 42.7%. The TEF in data set [2] is on record as 0.1.
On to `Clc1cc2c(cc1Cl)Oc1c(cc(Cl)c(Cl)c1Cl)O2` [1,2,3,7,8-PeCDD], for which, in data set [1], the IC50 amounted to 0.0296 µg/mL (≈ 0.083 µM) and the Cross-reactivity was determined as 3. For the same molecule, the TEF in data set [2] is on record as 1.
In data set [1], `Clc1cc2oc3cc(Cl)c(Cl)c(Cl)c3c2cc1Cl` [1,2,3,7,8-PeCDF] registered a half-inhibitory concentration (IC50) of 0.000915 µg/mL (≈ 0.00269 µM) and a Cross-reactivity of 100. In addition, in data set [2], the TEF was 0.05.
In the case of `Clc1cc(-c2cc(Cl)c(Cl)c(Cl)c2Cl)cc(Cl)c1Cl` [2,3,3′,4,4′,5,5′-HpCB], in data set [1], the IC50 is over 0.1 µg/mL and the Cross-reactivity is given as under 1. Besides, in data set [2], the TEF is recorded as 0.0001.
For the molecule `Clc1ccc(-c2cc(Cl)c(Cl)c(Cl)c2Cl)cc1Cl` [2,3,3′,4,4′,5-HxCB], in data set [1], the IC50 was over 0.1 µg/mL and the Cross-reactivity is listed as under 1. Besides, the TEF in data set [2] is 0.0005.
In data set [1], `Clc1cc(-c2ccc(Cl)c(Cl)c2Cl)cc(Cl)c1Cl` [2,3,3′,4,4′,5′-HxCB] yielded an IC50 of over 0.1 µg/mL and a Cross-reactivity of under 1. Besides, the TEF in data set [2] is reported as 0.0005.
In data set [1], `Clc1ccc(-c2ccc(Cl)c(Cl)c2Cl)cc1Cl` [2,3,3′,4,4′-PeCB] returned a concentration for half-maximal inhibition (IC50) of over 0.1 µg/mL and a Cross-reactivity of under 1. For the same molecule, the TEF in data set [2] was 0.0001.
For `Clc1ccc(-c2cc(Cl)c(Cl)c(Cl)c2Cl)cc1` [2,3,4,4′,5-PeCB], in data set [1], the IC50 is over 0.1 µg/mL and the Cross-reactivity is recorded as under 1. In addition, in data set [2], the TEF is recorded as 0.0005.
In the case of `Clc1cc2c(oc3c(Cl)c(Cl)c(Cl)cc32)c(Cl)c1Cl` [2,3,4,6,7,8-HxCDF], in data set [1], the “reactivity (cross-reactivity)” value came out at 93%, the IC50 amounted to 0.000989 µg/mL (≈ 0.00264 µM) and the Cross-reactivity is reported as 93. For the same molecule, the Cross-reactivity in data set [3] is 43.8%. Also, the TEF in data set [2] was 0.1.
For the molecule `Clc1cc2c(cc1Cl)Oc1cc(Cl)c(Cl)cc1O2` [2,3,7,8-TeCDD, 2,3,7,8-tetrachlorodibenzo-p-dioxin], in data set [1], the “reactivity (cross-reactivity)” value was 13%, the concentration for half-maximal inhibition (IC50) came out at 0.0072 µg/mL (≈ 0.0224 µM) and the Cross-reactivity worked out at 13. In data set [2], the TEF is given as 1.
In data set [1], `Clc1cc2oc3cc(Cl)c(Cl)cc3c2cc1Cl` [2,3,7,8-TeCDF] displayed a half-inhibitory concentration (IC50) of 0.0123 µg/mL (≈ 0.0402 µM) and a Cross-reactivity of 7. Besides, the TEF in data set [2] is recorded as 0.1.
In data set [1], `Clc1cc(Cl)c(-c2cc(Cl)c(Cl)c(Cl)c2)cc1Cl` [2,3′,4,4′,5,5′-HxCB] came in with a 50% inhibitory concentration (IC50) of over 0.1 µg/mL and a Cross-reactivity of under 1. For the same molecule, in data set [2], the TEF is 0.00001.
On to `Clc1ccc(-c2cc(Cl)c(Cl)cc2Cl)cc1Cl` [2,3′,4,4′,5-PeCB], for which, in data set [1], the IC50 is over 0.1 µg/mL and the Cross-reactivity is under 1. Moreover, in data set [2], the TEF is reported as 0.0001.
Turning to `Clc1ccc(-c2cc(Cl)c(Cl)c(Cl)c2)c(Cl)c1` [2′,3,4,4′,5-PeCB], in data set [1], the IC50 was over 0.1 µg/mL and the Cross-reactivity is recorded as under 1. Further, the TEF in data set [2] was 0.0001.
For the molecule `Clc1cc(-c2cc(Cl)c(Cl)c(Cl)c2)cc(Cl)c1Cl` [3,3′,4,4′,5,5′-HxCB], in data set [1], the IC50 was 0.0629 µg/mL (≈ 0.174 µM) and the Cross-reactivity is on record as 1. In data set [2], the TEF was 0.01.
Take `Clc1ccc(-c2cc(Cl)c(Cl)c(Cl)c2)cc1Cl` [3,3′,4,4′,5-PeCB]: in data set [1], the IC50 was 0.0537 µg/mL (≈ 0.165 µM) and the Cross-reactivity was determined as 2. Further, in data set [2], the TEF was 0.1.
As to `Clc1ccc(-c2ccc(Cl)c(Cl)c2)cc1Cl` [3,3′,4,4′-TeCB], in data set [1], the half-inhibitory concentration (IC50) was over 0.1 µg/mL and the Cross-reactivity is on record as under 1. In data set [2], the TEF is given as 0.0001.
As for `Clc1ccc(-c2cc(Cl)c(Cl)c(Cl)c2)cc1` [3,4,4′,5-TeCB], in data set [1], the half-inhibitory concentration (IC50) was over 0.1 µg/mL and the Cross-reactivity is recorded as under 1. Also, the TEF in data set [2] is reported as 0.0001.
In data set [1], `Clc1c(Cl)c(Cl)c2c(c1Cl)Oc1c(Cl)c(Cl)c(Cl)c(Cl)c1O2` [OCDD] returned an IC50 of over 0.1 µg/mL and a Cross-reactivity of under 1. Besides, the TEF in data set [2] is reported as 0.0001.
Regarding `Clc1c(Cl)c(Cl)c2c(oc3c(Cl)c(Cl)c(Cl)c(Cl)c32)c1Cl` [OCDF], in data set [1], the concentration for half-maximal inhibition (IC50) is over 0.1 µg/mL and the Cross-reactivity was under 1. Also, the TEF in data set [2] is listed as 0.0001.
